Measured values: patent US20250296971A1, “GASTRIC INHIBITORY PEPTIDE RECEPTOR LIGANDS” (priority 2021, published 2025)
Read-outs that look alike come from different tables or passages of the source. *1 amine or outer side, *2 acyl side, *3 side chain or, on linkers, in order; H or OH if unused. Where a SMILES comes first, the peptide text is derived from it. Bridges are numbered along the chain shown (N, C = ends). [ ]: non-standard residue; d: D form. The star is where a group is joined. DOTA(In) = O=C1CN2CCN3CCN(CC(=O)*)CCN(CC2)CC(=O)[O][In]([O]1)[O]C(=O)C3; X3 = O=C(O)CN1CCN(CC(=O)O)CCN(CC(=O)NCCCOCCOCCOCCCN*)CCN(CC(=O)O)CC1; NH(1-deoxy-D-glucityl) = OC[C@@H](O)[C@@H](O)[C@H](O)[C@@H](O)CN*; DOTA = O=C(O)CN1CCN(CC(=O)O)CCN(CC(=O)*)CCN(CC(=O)O)CC1; Trp(5-Br) = N[C@@H](Cc1c[nH]c2ccc(Br)cc12)C(=O)O; Trp(5-Cl) = N[C@@H](Cc1c[nH]c2ccc(Cl)cc12)C(=O)O; Pyridine(2,6-diCH2) = c1cc(C[*:1])nc(C[*:2])c1; X10 = O=C(CN(CC(=O)NC(CO)CO)CC(=O)*)NC(CO)CO; Pro(4R-NH2) = N[C@H]1CN[C@H](C(=O)O)C1; X4 = O=C(NCCN[*:2])c1cccc(C[*:1])c1; Glutaryl = O=C(CCCC(=O)[*:2])[*:1]; X6 = c1cc(CSCCN[*:2])nc(C[*:1])c1; Cya = N[C@@H](CS(=O)(=O)O)C(=O)O; Hyp = O=C(O)[C@@H]1C[C@@H](O)CN1; X1 = O=C(CN1CCC(N[*:1])CC1)[*:2]; Suc = O=C(CCC(=O)[*:2])[*:1]; hSer = N[C@@H](CCO)C(=O)O; NHCH(CH2OH)2 = OCC(CO)N*; dDap = NC[C@@H](N)C(=O)O; Api = NC1(C(=O)O)CCNCC1; Thp = NC1(C(=O)O)CCOCC1; Aib = CC(C)(N)C(=O)O

Columns and labels:
[1] = target: T1, GIPR (CHO-K1-hGIPR cells) (Homo sapiens, UniProt P48546); assay: FACS binding assay
T1 construct: host or cells: CHO-K1
T1 sequence (P48546 22-466): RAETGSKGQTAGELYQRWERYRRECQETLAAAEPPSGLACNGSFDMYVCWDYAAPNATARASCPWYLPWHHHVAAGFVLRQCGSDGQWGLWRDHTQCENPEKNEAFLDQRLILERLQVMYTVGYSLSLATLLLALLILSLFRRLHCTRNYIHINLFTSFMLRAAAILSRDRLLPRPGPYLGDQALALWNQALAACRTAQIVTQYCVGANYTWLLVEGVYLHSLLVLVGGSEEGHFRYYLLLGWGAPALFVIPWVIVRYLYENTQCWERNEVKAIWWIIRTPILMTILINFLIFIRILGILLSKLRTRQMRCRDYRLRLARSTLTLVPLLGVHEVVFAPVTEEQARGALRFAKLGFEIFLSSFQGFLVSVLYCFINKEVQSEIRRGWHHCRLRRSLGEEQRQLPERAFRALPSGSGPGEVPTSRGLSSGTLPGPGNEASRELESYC
Outline: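 Steps: detach CHO-K1-hGIPR cells (Accutase); wash in PBS/1% FCS; adjust to 500.000 cells per mL; wash ice-cold; incubate APC-streptavidin 1 μg/mL, 30 min on ice; wash twice; acquire on flow cytometer; fit MFI-concentration data with a four-parameter logistic model.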

[2] = target: T2, human GIP receptor (bioGIPR) (Homo sapiens, UniProt P48546); assay: Surface plasmon resonance (SPR) based binding assay; conditions: Single Cycle Kinetic mode, 25° C.; for Kd: SPR, 1:1 Langmuir binding model, read-out: pKD Category (converted); for t1/2 Category: SPR dissociation half-life
T2 construct: Biotinylate extracellular of the human GIP receptor (bioGIPR, Proteros biostructures GmbH, lot #02/2b); purchased Proteros biostructures GmbH lot #02/2b
T2 sequence (P48546 22-138 limits assumed): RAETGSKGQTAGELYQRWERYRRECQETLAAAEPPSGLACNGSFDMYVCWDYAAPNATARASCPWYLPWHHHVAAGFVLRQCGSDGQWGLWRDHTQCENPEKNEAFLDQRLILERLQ
Outline: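 Binding was measured at 25 °C by single-cycle kinetics against a reference flow cell, with blank-run and drift correction, after capturing biotinylated GIPR extracellular domain to ~3500 RU. Running buffer: HBST, 0.1% DMSO. A 1:1 Langmuir model gave kinetic rates, KD, t1/2 and pKD.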

[3] = competition with 20 nM GIP-057, 4° C., 1 hour, read-out: pIC50 Category (converted)
[4] = competition with 20 nM GIP-057, 4° C. for 1 hour, read-out: pIC50 Category (converted)

Row | Compound | IC50 ([1]; pIC50 Category, competition with 20 nM GIP-057, 4° C., 1 hour) [nM] | Kd [2] [nM] | IC50 [1, 3] [nM] | t1/2 Category [2] | IC50 [1, 4] [nM]
1 | CC[C@H](C)[C@@H]1NC(=O)[C@H](CC(C)C)NC(=O)C2(CCN(C(=O)CN3CCN4CCN5CCN(CC3)CC(=O)[O][In]([O]C(=O)C5)[O]C(=O)C4)CC2)NC(=O)[C@@H](NC(=O)[C@@H](CC(C)C)NC(=O)[C@H](CCC(=O)O)NC(=O)[C@@H]2C[C@@H](O)CN2C(=O)[C@H](Cc2c[nH]c3ccc(Cl)cc23)NC(=O)[C@H](Cc2c[nH]c3ccccc23)NC(=O)CCC(=O)O)CSCc2cccc(n2)CSCCNC1=O [GIP-169, HO-Succinyl-Trp-5Clw-Hyp-Glu-leu-[Cys(2Lut)-Apc(InDOTA)-Leu-Ile-AET]] (Suc-W[Trp(5-Cl)][Hyp]E[dL]C[Api](DOTA(In))LI; linker 6-C via X6) | < 10 | < 1 |  |  | 
2 | CC[C@H](C)[C@@H]1NC(=O)[C@H](CC(C)C)NC(=O)C(C)(C)NC(=O)[C@@H](NC(=O)[C@@H](CC(C)C)NC(=O)[C@H](CCC(=O)O)NC(=O)[C@@H]2C[C@@H](O)CN2C(=O)[C@H](Cc2c[nH]c3ccc(Cl)cc23)NC(=O)[C@H](Cc2c[nH]c3ccccc23)NC(=O)[C@H](CS(=O)(=O)O)NC(C)=O)CSCc2cccc(n2)CSCCNC1=O [GIP-179, Ac-Cya-Trp-5Clw-Hyp-Glu-leu-[Cys(2Lut)-Aib-Leu-Ile-AET]] (Ac-[Cya]W[Trp(5-Cl)][Hyp]E[dL]C[Aib]LI; linker 7-C via X6) |  | < 1 | < 10 |  | 
3 | CC[C@H](C)[C@@H]1NC(=O)[C@H](CC(C)C)NC(=O)C2(CCOCC2)NC(=O)[C@@H](NC(=O)[C@@H](CC(C)C)NC(=O)[C@H](CCC(=O)O)NC(=O)[C@@H]2C[C@@H](O)CN2C(=O)[C@H](Cc2c[nH]c3ccc(Cl)cc23)NC(=O)[C@H](Cc2c[nH]c3ccccc23)NC(=O)[C@H](CO)NC(C)=O)CSCc2cccc(n2)CSC[C@@H](C(N)=O)NC1=O [GIP-188, Ac-Ser-Trp-5Clw-Hyp-Glu-leu-[Cys(2Lut)-Thp-Leu-Ile-Cys]-NH2] (Ac-SW[Trp(5-Cl)][Hyp]E[dL]C[Thp]LIC-NH2; linker 7-11 via Pyridine(2,6-diCH2)) |  | < 1 | < 10 | A (t1/2 values>15 min) | 
4 | CC[C@H](C)[C@@H]1NC(=O)[C@H](CC(C)C)NC(=O)C2(CCOCC2)NC(=O)[C@@H](NC(=O)[C@@H](CC(C)C)NC(=O)[C@H](CCO)NC(=O)[C@@H]2C[C@@H](O)CN2C(=O)[C@H](Cc2c[nH]c3ccc(Cl)cc23)NC(=O)[C@H](Cc2c[nH]c3ccccc23)NC(=O)[C@H](CC(=O)O)NC(C)=O)CSCc2cccc(n2)CSC[C@@H](C(N)=O)NC1=O [GIP-194, Ac-Asp-Trp-5Clw-Hyp-Hse-leu-[Cys(2Lut)-Thp-Leu-Ile-Cys]-NH2] (Ac-DW[Trp(5-Cl)][Hyp][hSer][dL]C[Thp]LIC-NH2; linker 7-11 via Pyridine(2,6-diCH2)) |  | < 1 | < 10 | A (t1/2 values>15 min) | 
5 | CC[C@H](C)[C@@H]1NC(=O)[C@H](CC(C)C)NC(=O)C2(CCOCC2)NC(=O)[C@@H](NC(=O)[C@@H](CC(C)C)NC(=O)[C@H](CCC(=O)O)NC(=O)[C@@H]2C[C@@H](O)CN2C(=O)[C@H](Cc2c[nH]c3ccc(Br)cc23)NC(=O)[C@H](Cc2c[nH]c3ccccc23)NC(=O)[C@H](CCO)NC(C)=O)CSCc2cccc(n2)CSC[C@@H](C(N)=O)NC1=O [GIP-197, Ac-Hse-Trp-5Brw-Hyp-Glu-leu-[Cys(2Lut)-Thp-Leu-Ile-Cys]-NH2] (Ac-[hSer]W[Trp(5-Br)][Hyp]E[dL]C[Thp]LIC-NH2; linker 7-11 via Pyridine(2,6-diCH2)) |  | < 1 | < 10 | A (t1/2 values>15 min) | 
6 | CC[C@H](C)[C@@H]1NC(=O)[C@H](CC(C)C)NC(=O)C(C)(C)NC(=O)[C@@H](NC(=O)[C@@H](CC(C)C)NC(=O)[C@H](CCC(=O)O)NC(=O)[C@@H]2CCCN2C(=O)[C@H](Cc2c[nH]c3ccc(Cl)cc23)NC(=O)[C@H](Cc2c[nH]c3ccccc23)NC(=O)[C@H](CC(=O)O)NC(=O)CCC(=O)NCCCOCCOCCOCCCNC(=O)CN2CCN(CC(=O)O)CCN(CC(=O)O)CCN(CC(=O)O)CC2)CSCc2cccc(c2)C(=O)NCCNC1=O [GIP-359, DOTA-Ttds-Asp-Trp-5Clw-Pro-Glu-leu-[Cys(3CbBn)-Aib-Leu-Ile-en]] ({X3-Suc}-DW[Trp(5-Cl)]PE[dL]C[Aib]LI; linker 7-C via X4) |  | 1 to 7.94 |  | C (t1/2 between 5 min and 2.1 min) | 10 to 79.4
7 | CC[C@H](C)[C@@H]1NC(=O)[C@H](CC(C)C)NC(=O)C2(CCN(C(=O)CN3CCN(CC(=O)O)CCN(CC(=O)O)CCN(CC(=O)O)CC3)CC2)NC(=O)[C@@H](NC(=O)[C@@H](CC(C)C)NC(=O)[C@H](CCC(=O)O)NC(=O)[C@@H]2C[C@@H](N)CN2C(=O)[C@H](Cc2c[nH]c3ccc(Cl)cc23)NC(=O)[C@H](Cc2c[nH]c3ccccc23)NC(=O)[C@H](CC(=O)O)NC(=O)CCCC(=O)NC[C@H](O)[C@@H](O)[C@H](O)[C@H](O)CO)CSCc2cccc(n2)CSC[C@@H](C(=O)NC2CCN(CC(=O)N[C@H](CCC(=O)NC(CO)CO)C(=O)NC(CO)CO)CC2)NC1=O [GIP-372, AGLU-Glutar-Asp-Trp-5Clw-Tap-Glu-leu-[Cys(2Lut)-Apc(DOTA)-Leu-Ile-Cys]-APAc-GLUSEROL] ({NH(1-deoxy-D-glucityl)-Glutaryl}-DW[Trp(5-Cl)][Pro(4R-NH2)]E[dL]C[Api](DOTA)LIC[X1][dE](NHCH(CH2OH)2)-{NHCH(CH2OH)2}; linker 7-11 via Pyridine(2,6-diCH2)) |  | < 1 |  | A (t1/2 values>15 min) | < 10
8 | CC[C@H](C)[C@@H]1NC(=O)[C@H](CC(C)C)NC(=O)C2(CCN(C(=O)CN3CCN(CC(=O)O)CCN(CC(=O)O)CCN(CC(=O)O)CC3)CC2)NC(=O)[C@@H](NC(=O)[C@@H](CC(C)C)NC(=O)[C@H](CCC(=O)O)NC(=O)[C@@H]2C[C@@H](N)CN2C(=O)[C@H](Cc2c[nH]c3ccc(Cl)cc23)NC(=O)[C@H](Cc2c[nH]c3ccccc23)NC(=O)[C@H](CC(=O)O)NC(=O)CN(CC(=O)NC(CO)CO)CC(=O)NC(CO)CO)CSCc2cccc(n2)CSC[C@@H](C(=O)NC2CCN(CC(=O)N[C@H](CNC(=O)CN(CC(=O)NC(CO)CO)CC(=O)NC(CO)CO)C(N)=O)CC2)NC1=O [GIP-373, NTASEROL-Asp-Trp-5Clw-Tap-Glu-leu-[Cys(2Lut)-Apc(DOTA)-Leu-Ile-Cys]-APAc-dap(NTASEROL)-NH2] (X10-DW[Trp(5-Cl)][Pro(4R-NH2)]E[dL]C[Api](DOTA)LIC[X1][dDap](X10)-NH2; linker 7-11 via Pyridine(2,6-diCH2)) |  | < 1 |  | A (t1/2 values>15 min) | < 10
9 | CC[C@H](C)[C@@H]1NC(=O)[C@H](CC(C)C)NC(=O)C2(CCN(C(=O)CN3CCN(CC(=O)O)CCN(CC(=O)O)CCN(CC(=O)O)CC3)CC2)NC(=O)[C@@H](NC(=O)[C@@H](CC(C)C)NC(=O)[C@H](CCC(=O)O)NC(=O)[C@@H]2C[C@@H](N)CN2C(=O)[C@H](Cc2c[nH]c3ccc(Cl)cc23)NC(=O)[C@H](Cc2c[nH]c3ccccc23)NC(=O)[C@H](CC(=O)O)NC(=O)CN(CC(=O)NC(CO)CO)CC(=O)NC(CO)CO)CSCc2cccc(n2)CSC[C@@H](C(=O)NC2CCN(CC(=O)N[C@H](CCC(=O)NC(CO)CO)C(=O)NC(CO)CO)CC2)NC1=O [GIP-374, NTASEROL-Asp-Trp-5Clw-Tap-Glu-leu-[Cys(2Lut)-Apc(DOTA)-Leu-Ile-Cys]-APAc-GLUSEROL] (X10-DW[Trp(5-Cl)][Pro(4R-NH2)]E[dL]C[Api](DOTA)LIC[X1][dE](NHCH(CH2OH)2)-{NHCH(CH2OH)2}; linker 7-11 via Pyridine(2,6-diCH2)) |  | < 1 |  | A (t1/2 values>15 min) | < 10
10 | CC[C@H](C)[C@@H]1NC(=O)[C@H](CC(C)C)NC(=O)C2(CCOCC2)NC(=O)[C@@H](NC(=O)[C@@H](CC(C)C)NC(=O)[C@H](CCCCN)NC(=O)[C@@H]2C[C@@H](O)CN2C(=O)[C@H](Cc2c[nH]c3ccc(Cl)cc23)NC(=O)[C@H](Cc2c[nH]c3ccccc23)NC(=O)[C@H](CC(=O)O)NC(C)=O)CSCc2cccc(n2)CSC[C@@H](C(N)=O)NC1=O [GIP-375, Ac-Asp-Trp-5Clw-Hyp-Lys-leu-[Cys(2Lut)-Thp-Leu-Ile-Cys]-NH2] (Ac-DW[Trp(5-Cl)][Hyp]K[dL]C[Thp]LIC-NH2; linker 7-11 via Pyridine(2,6-diCH2)) |  | 1 to 7.94 |  | A (t1/2 values>15 min) | < 10
